Results reported in PMC11496704, “Synthesis and cytotoxicity studies of novel N-arylbenzo[h]quinazolin-2-amines” (Beilstein Journal of Organic Chemistry, 2024).

Legend:
Type in all cases: cell-based
MCF7 [1] = experiment: Cytotoxicity secondary screen (IC50); settings: Homo sapiens, 48 h exposure, mean of triplicates, NE: no effect
PC3 [2] = experiment: Cytotoxicity secondary screen (IC50); settings: Homo sapiens, PC-3; 48 h exposure, mean of triplicates; NE: no effect
Description: (§1) Cell culture. Skin normal fibroblastic cells are purchased from Lonza (Basel, Switzerland), HuH-7, Caco-2, MDA-MB-231, HCT-116, PC3, MCF7 and NCI-H727 cancer cell lines were obtained from ATCC (American Type Culture Collection). Cells are grown at 37 °C, 5% CO2 in ATCC recommended media: DMEM for HuH-7, MDA-MB-231, MDA-MB-468 and fibroblast, EMEM for MCF7 and CaCo-2, McCoy’s for HCT-116 and RPMI for PC3 and NCI-H727. All culture media are supplemented by 10% of FBS, 1% of penicillin-streptomycin and 2 mM glutamine.
(§2) Both studies have been performed following the protocols described in a previous paper, see ref. [2].

normal human fibroblasts = experiment: Cytotoxicity secondary screen (IC50); settings: Fibroblast, 48 h exposure, mean of triplicates, NE: no effect, highest concentration tested 25 μM, read-out: IC50 Fibro
Description: as §1, §2

HuH-7 = experiment: Cytotoxicity secondary screen (IC50); settings: Homo sapiens, 48 h exposure, mean of triplicates, NE: no effect
Description: as §1, §2

HuH7 = experiment: Cytotoxicity primary screen (single dose); settings: Homo sapiens, Huh-7; single dose 25 μM, 48 h exposure, mean of triplicates; read-out: percentage of cell survival over DMSO control, HuH7
Description: (§3) Next, we performed a cytotoxicity screening of the nineteen molecules 4a–s, at 25 μM, investigating seven representative cancer cell lines: hepatocellular carcinoma HuH-7, colorectal adenocarcinoma CaCo-2, breast carcinoma MDA-MB-231 and MDA-MB-468, colorectal carcinoma HCT-116, prostate carcinoma PC3 and breast carcinoma MCF7. […] For details see: ref. [2] and Supporting Information File 1, Table S1.
as §1, §2
(§4) Table S1: Cytotoxicity studies (single dose at 25µM) of N-arylbenzo[h]quinazolin-2-amines 4a–s
(§5) The toxicity is expressed as the percentage of cell survival (from 100 % to 0 %) over DMSO control after 48 h exposure (mean of triplicates).
(§6) Effect of the solvent (DMSO) was studied at 0.25%.

Caco-2 [3] = experiment: Cytotoxicity primary screen (single dose); settings: single dose 25 μM, 48 h exposure, mean of triplicates
Description: as §3, §1, §2, §4, §5, §6

Caco-2 [4] = experiment: Cytotoxicity secondary screen (IC50); settings: Homo sapiens, 48 h exposure, mean of triplicates, NE: no effect
Description: as §3, §1, §2

HCT-116 = experiment: Cytotoxicity secondary screen (IC50); settings: Homo sapiens, 48 h exposure, mean of triplicates, NE: no effect
Description: as §3, §1, §2

MDA-MB-468 = experiment: Cytotoxicity secondary screen (IC50); settings: Homo sapiens, 48 h exposure, mean of triplicates, NE: no effect
MCF7 [5] = experiment: Cytotoxicity primary screen (single dose); settings: Homo sapiens, single dose 25 μM, 48 h exposure, mean of triplicates, read-out: percentage of cell survival over DMSO control, MCF7
Description: as §3, §1, §2, §4, §5, §6

HCT116 = experiment: Cytotoxicity primary screen (single dose); settings: Homo sapiens, HCT-116; single dose 25 μM, 48 h exposure, mean of triplicates; read-out: percentage of cell survival over DMSO control, HCT116
Description: as §3, §1, §2, §4, §5, §6

MDA468 = experiment: Cytotoxicity primary screen (single dose); settings: single dose 25 μM, 48 h exposure, mean of triplicates; read-out: percentage of cell survival over DMSO control, MDA468
Description: as §3, §1, §2, §4, §5, §6

MDA231 = experiment: Cytotoxicity primary screen (single dose); settings: Homo sapiens, MDA-MB-231; single dose 25 μM, 48 h exposure, mean of triplicates; read-out: percentage of cell survival over DMSO control, MDA231
Description: as §3, §1, §2, §4, §5, §6

PC3 [6] = experiment: Cytotoxicity primary screen (single dose); settings: Homo sapiens, PC-3; single dose 25 μM, 48 h exposure, mean of triplicates; read-out: percentage of cell survival over DMSO control, PC3
Description: as §3, §1, §2, §4, §5, §6

MDA-MB-231 = experiment: Cytotoxicity secondary screen (IC50); settings: Homo sapiens, 48 h exposure, mean of triplicates, NE: no effect

Compound	IC50 (MCF7 [1])	IC50 (PC3 [2])	IC50 (normal human fibroblasts)	IC50 (HuH-7)	viability at 25 µM (HuH7)	percentage of cell survival over DMSO control, CaCo-2 (Caco-2 [3])	IC50 (Caco-2 [4])	IC50 (HCT-116)	IC50 (MDA-MB-468)	viability at 25 µM (MCF7 [5])	viability at 25 µM (HCT116)	viability at 25 µM (MDA468)	viability at 25 µM (MDA231)	viability at 25 µM (PC3 [6])	IC50 (MDA-MB-231)
Cc1ccccc1Nc1ncc2ccc3ccccc3c2n1 [Compound 4b, N-(o-tolyl)benzo[h]quinazolin-2-amine]	> 25 µM	> 25 µM	> 25 µM	> 25 µM	69%	56%	> 25 µM	> 25 µM	> 25 µM	70%	79%	93%	86%	72%	> 25 µM
Cc1cccc(Nc2ncc3ccc4ccccc4c3n2)c1 [Compound 4c, N-(m-tolyl)benzo[h]quinazolin-2-amine]	30 µM	> 25 µM	> 25 µM	> 25 µM	68%	50%	28 µM	18 µM	22 µM	50%	52%	65%	81%	60%	> 25 µM
Cc1ccc(Nc2ncc3ccc4ccccc4c3n2)cc1 [Compound 4d, N-(p-tolyl)benzo[h]quinazolin-2-amine]	> 25 µM	30 µM	> 25 µM	> 25 µM	85%	63%	> 25 µM	5 µM	31 µM	61%	54%	72%	67%	65%	> 25 µM
COc1ccccc1Nc1ncc2ccc3ccccc3c2n1 [Compound 4e, N-(2-methoxyphenyl)benzo[h]quinazolin-2-amine]	22 µM	> 25 µM	> 25 µM	> 25 µM	55%	59%	20 µM	26 µM	25 µM	82%	8%	46%	40%	21%	25 µM
COc1cccc(Nc2ncc3ccc4ccccc4c3n2)c1 [Compound 4f, N-(3-methoxyphenyl)benzo[h]quinazolin-2-amine]	> 25 µM	26 µM	> 25 µM	23 µM	59%	59%	4.3 µM	10 µM	33 µM	78%	29%	73%	77%	54%	> 25 µM
COc1ccc(Nc2ncc3ccc4ccccc4c3n2)cc1 [Compound 4g, N-(4-methoxyphenyl)benzo[h]quinazolin-2-amine]					79%	81%				83%	72%	90%	87%	82%	
Fc1ccccc1Nc1ncc2ccc3ccccc3c2n1 [Compound 4h, N-(2-fluorophenyl)benzo[h]quinazolin-2-amine]	> 25 µM	> 25 µM	> 25 µM	> 25 µM	81%	48%	4.6 µM	> 25 µM	> 25 µM	83%	82%	94%	83%	74%	> 25 µM
Fc1ccc(Nc2ncc3ccc4ccccc4c3n2)cc1 [Compound 4j, N-(4-fluorophenyl)benzo[h]quinazolin-2-amine]					92%	77%				81%	81%	95%	91%	78%	
Clc1ccccc1Nc1ncc2ccc3ccccc3c2n1 [Compound 4k, N-(2-chlorophenyl)benzo[h]quinazolin-2-amine]	> 25 µM	> 25 µM	> 25 µM	> 25 µM	76%	61%	> 25 µM	> 25 µM	> 25 µM	56%	83%	93%	91%	73%	> 25 µM
Clc1cccc(Nc2ncc3ccc4ccccc4c3n2)c1 [Compound 4l, N-(3-chlorophenyl)benzo[h]quinazolin-2-amine]	18 µM	26 µM	> 25 µM	22 µM	71%	38%	17 µM	24 µM	26 µM	68%	56%	78%	67%	59%	> 25 µM
Clc1ccc(Nc2ncc3ccc4ccccc4c3n2)cc1 [Compound 4m, N-(4-chlorophenyl)benzo[h]quinazolin-2-amine]					96%	75%				88%	68%	88%	83%	74%	
Fc1ccc(Nc2ncc3ccc4ccccc4c3n2)cc1F [Compound 4n, N-(3,4-difluorophenyl)benzo[h]quinazolin-2-amine]					79%	72%				97%	82%	85%	91%	82%	
Fc1cc(Cl)cc(Nc2ncc3ccc4ccccc4c3n2)c1 [Compound 4p, N-(3-chloro-5-fluorophenyl)benzo[h]quinazolin-2-amine]					80%	54%				91%	17%	72%	68%	59%	
Cc1cc(Nc2ncc3ccc4ccccc4c3n2)ccc1Br [Compound 4r, N-(4-bromo-3-methylphenyl)benzo[h]quinazolin-2-amine]					80%	76%				85%	100%	96%	101%	89%	
Fc1cc(Nc2ncc3ccc4ccccc4c3n2)cc(F)c1F [Compound 4s, N-(3,4,5-trifluorophenyl)benzo[h]quinazolin-2-amine]					77%	65%				54%	63%	78%	78%	50%	
